The text below walks through data of PMC10535318, “Benzimidazole-Based Schiff Base Hybrid Scaffolds: A Promising Approach to Develop Multi-Target Drugs for Alzheimer’s Disease” (Pharmaceuticals, 2023).

Read-outs that look alike come from different tables or passages of the source.

The target in test [1] is T1, acetylcholinesterase (AChE) (Homo sapiens, UniProt P22303).
T1 construct: purchased Sigma-Aldrich (Steinheim, Germany)
Briefly: biochemical. On the procedure: (§1) All chemicals and reagents employed in the study were obtained from Merck or Sigma-Aldrich (St. Louis, MO, USA) (Darmstadt, Germany). Acetylcholinesterase (E.C.3.1.1.7) and butyrylcholinesterase (E.C. 3.1.1.8) were procured from Sigma–Aldrich (Steinheim, Germany). The ^1H NMR and ^13C NMR spectra were recorded using a Bruker FT-NMR spectrometer operating at the digital frequencies of 600 and 150 MHz (Bioscience, Bruker, Billerica, MA, USA). Mass spectra were acquired utilizing a Shimadzu LCMS-IT-TOF system (Kyoto, Japan) employing the electrospray ionization (ESI) technique. The purity of synthesized derivatives was checked through thin-layer chromatography using silica gel 60 F254 (Merck, KGaA, Darmstadt, Germany).
(§2) The study was carried out following the guidelines outlined in our previously published study.

In test [2] the target is T2, butyrylcholinesterase (BuChE) (Homo sapiens, UniProt P06276).
T2 construct: purchased Sigma-Aldrich (Steinheim, Germany)
In words: biochemical. On the procedure: as §1, §2

Setting [3] is: in vitro, value ± standard error mean, read-out: AChE Inhibition IC50 ± SEM.
[4] abbreviates: in vitro, value ± standard error mean, read-out: BuChE Inhibition IC50 ± SEM.

T2 sequence (P06276 29-602): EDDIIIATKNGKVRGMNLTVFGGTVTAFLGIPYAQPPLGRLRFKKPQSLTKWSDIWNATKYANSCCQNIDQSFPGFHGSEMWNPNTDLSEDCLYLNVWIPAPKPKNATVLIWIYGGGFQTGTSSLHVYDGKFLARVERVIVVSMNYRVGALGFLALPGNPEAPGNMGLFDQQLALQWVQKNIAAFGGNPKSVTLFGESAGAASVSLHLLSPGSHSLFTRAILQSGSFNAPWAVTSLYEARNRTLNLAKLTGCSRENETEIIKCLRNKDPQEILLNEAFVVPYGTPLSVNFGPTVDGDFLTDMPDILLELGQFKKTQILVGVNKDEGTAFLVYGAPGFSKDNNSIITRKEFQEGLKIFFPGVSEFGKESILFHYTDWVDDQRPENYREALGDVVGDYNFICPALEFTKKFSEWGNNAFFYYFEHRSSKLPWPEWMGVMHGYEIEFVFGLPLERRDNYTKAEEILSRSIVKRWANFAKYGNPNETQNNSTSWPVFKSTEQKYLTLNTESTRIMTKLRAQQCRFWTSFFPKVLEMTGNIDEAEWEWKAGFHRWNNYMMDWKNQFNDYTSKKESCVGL
T1 sequence (P22303 32-614, species assumed): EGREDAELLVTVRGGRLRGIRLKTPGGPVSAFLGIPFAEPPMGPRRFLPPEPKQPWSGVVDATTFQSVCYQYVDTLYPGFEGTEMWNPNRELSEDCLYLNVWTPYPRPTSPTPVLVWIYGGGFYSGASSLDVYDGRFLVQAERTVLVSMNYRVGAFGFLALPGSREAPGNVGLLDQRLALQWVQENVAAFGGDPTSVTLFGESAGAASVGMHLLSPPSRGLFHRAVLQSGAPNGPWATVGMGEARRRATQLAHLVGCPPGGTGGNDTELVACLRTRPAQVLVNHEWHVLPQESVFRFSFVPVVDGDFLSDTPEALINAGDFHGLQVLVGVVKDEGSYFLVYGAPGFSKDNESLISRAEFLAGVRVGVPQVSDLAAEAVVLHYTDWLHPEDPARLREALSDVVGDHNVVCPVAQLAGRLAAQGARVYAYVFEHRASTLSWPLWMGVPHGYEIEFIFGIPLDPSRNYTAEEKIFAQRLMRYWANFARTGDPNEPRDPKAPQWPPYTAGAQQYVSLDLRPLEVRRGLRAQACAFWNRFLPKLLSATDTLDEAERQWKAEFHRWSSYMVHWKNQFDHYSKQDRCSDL

`O=[N+]([O-])c1ccc(NC2=CC=C(/N=C(\CSc3nc4ccccc4[nH]3)c3ccccc3[N+](=O)[O-])C2)c(O)c1` [Compound 3, (Z)-2-((4-((2-((1H-benzo[d]imidazol-2-yl)thio)-1-(2-nitrophenyl)ethylidene)amino)cyclopenta-1,3-dien-1-yl)amino)-5-nitrophenol]: the IC50 in test [1] turned out to be 124 ± 10.2 µM; in test [2] it was 131 ± 9.7 µM.
With `Cc1ccc(/C(CSc2nc3ccccc3[nH]2)=N/C2=CC=C(Nc3ccc([N+](=O)[O-])cc3O)C2)cc1` [Compound 4, (Z)-2-((4-((2-((1H-benzo[d]imidazol-2-yl)thio)-1-(p-tolyl)ethylidene)amino)cyclopenta-1,3-dien-1-yl)amino)-5-nitrophenol], the IC50 was determined as 274 ± 7.6 µM in test [1] (setting [3]) and 285 ± 8.2 µM in test [2] (setting [4]).
As for `Cc1ccccc1/C(CSc1nc2ccccc2[nH]1)=N/C1=CC=C(Nc2cccc([N+](=O)[O-])c2)C1` [Compound 14, (Z)-N-(4-((2-((1H-benzo[d]imidazol-2-yl)thio)-1-(o-tolyl)ethylidene)amino)cyclopenta-1,3-dien-1-yl)-3-nitroaniline], the concentration for half-maximal inhibition (IC50) turned out to be 289 ± 11.5 µM in test [1] (setting [3]) and 311 ± 12.3 µM in test [2] (setting [4]).
On to `O=[N+]([O-])c1cccc(NC2=CC=C(/N=C(\CSc3nc4ccccc4[nH]3)c3ccccc3Br)C2)c1` [Compound 17, (Z)-N-(4-((2-((1H-benzo[d]imidazol-2-yl)thio)-1-(2-bromophenyl)ethylidene)amino)cyclopenta-1,3-dien-1-yl)-3-nitroaniline], for which the IC50 in test [1] (setting [3]) is 234 ± 10.1 µM; in test [2] (setting [4]) it was 269 ± 9.6 µM.
For the compound `O=[N+]([O-])c1ccc(NC2=CC=C(/N=C(\CSc3nc4ccccc4[nH]3)c3ccc([N+](=O)[O-])cc3Br)C2)c(O)c1` [Compound 6, (Z)-2-((4-((2-((1H-benzo[d]imidazol-2-yl)thio)-1-(2-bromo-4-nitrophenyl)ethylidene)amino)cyclopenta-1,3-dien-1-yl)amino)-5-nitrophenol], the IC50 was 226 ± 10.1 µM in test [1] and 274 ± 13.8 µM in test [2].
As for `Cc1ccccc1/C(CSc1nc2ccccc2[nH]1)=N/C1=CC=C(Nc2ccc([N+](=O)[O-])cc2O)C1` [Compound 8, (Z)-2-((4-((2-((1H-benzo[d]imidazol-2-yl)thio)-1-(o-tolyl)ethylidene)amino)cyclopenta-1,3-dien-1-yl)amino)-5-nitrophenol], the IC50 was 291 ± 12.6 µM in test [1] (setting [3]) and 304 ± 13.8 µM in test [2] (setting [4]).
Take `O=[N+]([O-])c1ccc(/C(CSc2nc3ccccc3[nH]2)=N/C2=CC=C(Nc3ccc([N+](=O)[O-])cc3O)C2)cc1` [Compound 1, (Z)-2-((4-((2-((1H-benzo[d]imidazol-2-yl)thio)-1-(4-nitrophenyl)ethylidene)amino)cyclopenta-1,3-dien-1-yl)amino)-5-nitrophenol]: the IC50 came out at 214 ± 11.6 µM in test [1] and 249 ± 10.9 µM in test [2].
For the compound `O=[N+]([O-])c1ccc(NC2=CC=C(/N=C(\CSc3nc4ccccc4[nH]3)c3ccccc3Br)C2)c(O)c1` [Compound 7, (Z)-2-((4-((2-((1H-benzo[d]imidazol-2-yl)thio)-1-(2-bromophenyl)ethylidene)amino)cyclopenta-1,3-dien-1-yl)amino)-5-nitrophenol], the IC50 in test [1] (setting [3]) worked out at 314 ± 12.8 µM; in test [2] (setting [4]), 326 ± 13.1 µM.
As to `Cc1cccc(/C(CSc2nc3ccccc3[nH]2)=N/C2=CC=C(Nc3cccc([N+](=O)[O-])c3)C2)c1` [Compound 13, (Z)-N-(4-((2-((1H-benzo[d]imidazol-2-yl)thio)-1-(m-tolyl)ethylidene)amino)cyclopenta-1,3-dien-1-yl)-3-nitroaniline], the IC50 in test [1] (setting [3]) stood at 321 ± 13.5 µM; in test [2] (setting [4]), 354 ± 12.7 µM.
With `Cc1cc([N+](=O)[O-])ccc1/C(CSc1nc2ccccc2[nH]1)=N/C1=CC=C(Nc2cccc([N+](=O)[O-])c2)C1` [Compound 15, (Z)-N-(4-((2-((1H-benzo[d]imidazol-2-yl)thio)-1-(2-methyl-4-nitrophenyl)ethylidene)amino)cyclopenta-1,3-dien-1-yl)-3-nitroaniline], the IC50 in test [1] is 217 ± 8.28 µM; in test [2] it was 221 ± 8.7 µM.
As for `O=[N+]([O-])c1ccc(/C(CSc2nc3ccccc3[nH]2)=N/C2=CC=C(Nc3cccc([N+](=O)[O-])c3)C2)cc1` [Compound 11, (Z)-N-(4-((2-((1H-benzo[d]imidazol-2-yl)thio)-1-(4-nitrophenyl)ethylidene)amino)cyclopenta-1,3-dien-1-yl)-3-nitroaniline], the IC50 was determined as 268 ± 11.7 µM in test [1] and 274 ± 9.1 µM in test [2].
Take `COc1ccc(/C(CSc2nc3ccccc3[nH]2)=N/C2=CC=C(Nc3cccc([N+](=O)[O-])c3)C2)cc1O` [Compound 9, (Z)-5-(2-((1H-benzo[d]imidazol-2-yl)thio)-1-((4-((3-nitrophenyl)amino)cyclopenta-1,3-dien-1-yl)imino)ethyl)-2-methoxyphenol]: the figures for the IC50 in test [1] (setting [3]) and in test [2] (setting [4]) were 174 ± 6.76 µM and 181 ± 8.5 µM, respectively.
For the compound `O=[N+]([O-])c1cccc(NC2=CC=C(/N=C(\CSc3nc4ccccc4[nH]3)c3ccc([N+](=O)[O-])cc3Br)C2)c1` [Compound 18, (Z)-N-(4-((2-((1H-benzo[d]imidazol-2-yl)thio)-1-(2-bromo-4-nitrophenyl)ethylidene)amino)cyclopenta-1,3-dien-1-yl)-3-nitroaniline], the IC50 stood at 214 ± 8.2 µM in test [1] and 247 ± 9.1 µM in test [2].
`Cc1cc([N+](=O)[O-])ccc1/C(CSc1nc2ccccc2[nH]1)=N/C1=CC=C(Nc2ccc([N+](=O)[O-])cc2O)C1` [Compound 2, (Z)-2-((4-((2-((1H-benzo[d]imidazol-2-yl)thio)-1-(2-methyl-4-nitrophenyl)ethylidene)amino)cyclopenta-1,3-dien-1-yl)amino)-5-nitrophenol]: the IC50 was 199 ± 10.2 µM in test [1] and 204 ± 8.2 µM in test [2].
Turning to `O=[N+]([O-])c1ccc(NC2=CC=C(/N=C(\CSc3nc4ccccc4[nH]3)c3ccccc3)C2)c(O)c1` [Compound 10, (Z)-2-((4-((2-((1H-benzo[d]imidazol-2-yl)thio)-1-phenylethylidene)amino)cyclopenta-1,3-dien-1-yl)amino)-5-nitrophenol], the concentration for half-maximal inhibition (IC50) in test [1] (setting [3]) turned out to be 343 ± 10.6 µM; in test [2] (setting [4]) it was 376 ± 12.8 µM.
For the compound `O=[N+]([O-])c1ccc(NC2=CC=C(/N=C(\CSc3nc4ccccc4[nH]3)c3ccc(Cl)c(Cl)c3)C2)c(O)c1` [Compound 5, (Z)-2-((4-((2-((1H-benzo[d]imidazol-2-yl)thio)-1-(3,4-dichlorophenyl)ethylidene)amino)cyclopenta-1,3-dien-1-yl)amino)-5-nitrophenol], the results for the IC50 in test [1] (setting [3]) and in test [2] (setting [4]) were 169 ± 7.7 µM and 179 ± 6.7 µM, respectively.
As for `Cc1ccc(/C(CSc2nc3ccccc3[nH]2)=N/C2=CC=C(Nc3cccc([N+](=O)[O-])c3)C2)cc1` [Compound 12, (Z)-N-(4-((2-((1H-benzo[d]imidazol-2-yl)thio)-1-(p-tolyl)ethylidene)amino)cyclopenta-1,3-dien-1-yl)-3-nitroaniline], the IC50 was found to be 308 ± 8.8 µM in test [1] (setting [3]) and 318 ± 9.8 µM in test [2] (setting [4]).

What is called IC50 is the midpoint of a concentration-inhibition curve.
